Measurements reported in US20220023273A1, “METHODS FOR TREATING SYMPTOMS AND DISORDERS ASSOCIATED WITH LYSOSOMAL STORAGE DISEASES” (GENZYME CORPORATION, priority 2019, published 2022).

Columns and labels:
Assay type in all cases: in vivo, human
[1] = test system: GL-3 inclusions in skin cells; test: Fabry clinical study: skin GL-3 inclusion score by light microscopy; conditions: Fabry males
Description: A three-year open-label investigation of Compound 2 in young classic Fabry disease patients was conducted in order to evaluate the long-term safety, pharmacodynamics and exploratory efficacy of Compound 2 in adult male Fabry patients. Eleven subjects enrolled in the study, and seven subjects completed all aspects of the study. All subjects were males diagnosed with classic Fabry disease confirmed by genotype and residual alpha-galactosidase activity below detection levels (9 of the 11 had nonsense mutation in the GLA gene). All subjects had lyso-GL3 levels in plasma of at least 65 ng/mL and had no prior Fabry disease-specific treatment. The median age of subject was 24 years (range 19-37).
Each sample was scored independently by 3 pathologists for the presence of GL-3 inclusions on a four-point scale, and rated as 0 (no/trace), 1 (mild), 2 (moderate), or 3 (severe) according to Eng et al., N. Engl. J. Med. 345:9-16 (2001). A single score per patient per time point was derived by taking the score rated by the majority of the three pathologists. If a majority score could not be derived, then the median score was used (resulting in some fractional scores). Plasma samples were also analyzed for GL-3, lyso-GL-3, GL-1 and GM3 at baseline and weeks 12, 26, 52 and 156. Pain scores and abdominal symptoms were analyzed at baseline and weeks 12, 26, 52, 104 and 156 using the SF-36 scoring protocol.

[2] = GD3 clinical study: safety and tolerability; conditions: GD3, 15 mg/day oral + imiglucerase
Description: (§1) During the study patients were evaluated for safety and tolerability, CSF and plasma biomarkers (glucosylceramide, GL-1; glucosylsphingosine, lyso-GL1), pharmacokinetics, markers for systemic disease (spleen and liver volume measured by magnetic resonance imaging (MRI), platelet count, hemoglobin levels), indicia of interstitial lung disease (high resolution pulmonary computed tomography (CT)), and horizontal saccadic eye movement.

[3] = Phase 1 Study 1 Part 1: ascending single-dose pharmacokinetics; conditions: healthy men, fasted
From the text: Study 1 was a 2-part single-center trial in healthy adult male volunteers.
Part 1 of the study enrolled and randomized 55 healthy men (placebo, n=14; 2-, 5-, 15, 25-, 50, and 100-mg doses, n=6 each; 150-mg dose, n=5). Eight healthy men participated in Part 2.
After a 7-day washout period, participants were crossed over to the other condition.

[4] = Phase 1 Study 2: ascending repeated-dose pharmacokinetics
[5] = test system: glucosylceramide (GL-1), glucosylsphingosine (lyso-GL1); test: GD3 clinical study: CSF and plasma biomarkers GL-1 and lyso-GL1; conditions: GD3, 15 mg/day oral + imiglucerase
Description: as §1
At baseline, the mean (±SD) GL-1 concentration in CSF was 7.1±2.8 ng/mL (range 4.4-11.1 ng/mL), while the mean (±SD) lyso-GL-1 concentration in CSF was 39.3±22.9 pg/mL (range 20.1-67.6 pg/mL). For comparison, the healthy GL-1 concentration in CSF is 4.5-5.9 ng/mL, and the healthy level of lyso-GL-1 in CSF is less than 5.0 pg/mL.

[6] = test system: adult patients with Gaucher disease Type 3; test: GD3 clinical study: Scale for Assessment and Rating of Ataxia (SARA)
Description: The degree of ataxia at baseline and throughout the study was evaluated by the Scale for Assessment and Rating of Ataxia (SARA; Schmitz-Hubsch et al. [2006]), which assesses eight distinct attributes of cerebellar ataxia on a scale of 0-40. The eight attributes are gait, stance, sitting, speech disturbance, finger chase, nose-finger test, fast alternate hand movement, and heel-shin slide. SARA ataxia scoring results for all six patients is presented in the chart below: […]

[7] = test system: adult patients with Gaucher disease Type 3; test: GD3 clinical study: horizontal and vertical saccadic eye movements; conditions: GD3, 15 mg/day oral + imiglucerase
Description: as §1
Quantification of horizontal and vertical saccadic eye movements (HSEM and VSEM, respectively) was performed in all 5 patients. In the five patients, mean peak velocity (PV) of horizontal rightward 150 saccades was 50.8°/s (+/−8.1°/s) at baseline and […] (+/−12.6°/s) at Week 26: and the mean PV of horizontal leftward 150 saccades was 44.7°/s (+/−17.9°/s) at baseline and 32.3°/s (+/−15.9°/s) at Week 26. […]
At 52 weeks, quantification of horizontal and vertical saccadic eye movements was performed in all six patients in a similar manner as described in section (A). However, it was determined that the methodology used to account for noise (e.g., caused by blinking or head movements) may have introduced bias into the results. The method of accounting for noise was therefore modified, and a set of control criteria were developed to assess validity of the datasets obtained by the eye movement reader.

[8] = healthy adults, 5 mg once daily, Day 14
[9] = repeated once-daily doses from 5-20 mg

## CC(C)(NC(=O)O[C@@H]1CN2CCC1CC2)c1csc(-c2ccc(F)cc2)n1 [Compound 2, (S)-quinuclidin-3-yl (2-(2-(4-fluorophenyl)thiazol-4-yl)propan-2-yl)carbamate]
[1]; 15 mg/day
  levels of GL-3 inclusions in the skin: consistently reduces the levels of GL-3 inclusions in the skin
[1]; by week 156, 15 mg/day oral
  patients with a 1-point reduction in skin GL-3 score: five
  patients with complete clearance of GL-3 inclusions: two
  patients with no change in skin GL-3 score: one
[2]; 26 weeks, all 5 patients
  treatment-emergent adverse events: no serious or lasting treatment-emergent adverse events
[2]; 52 weeks, six patients
  total treatment-emergent adverse events reported: 30
[2]; 52 weeks, six patients, none considered related to treatment
  severity of treatment-emergent adverse events: mild or moderate in severity
[3]; single oral 2 mg
  CL/F, Geometric mean: 6.3 L/h
[3]; single oral 5 mg
  CL/F, Geometric mean: 5.8 L/h
[3]; single oral 15 mg
  CL/F, Geometric mean: 5.6 L/h
[3]; single oral 25 mg
  CL/F, Geometric mean: 5.0 L/h
[3]; single oral 50 mg
  CL/F, Geometric mean: 5.5 L/h
[3]; single oral 100 mg
  CL/F, Geometric mean: 5.3 L/h
[3]; single oral 150 mg
  CL/F, Geometric mean: 5.6 L/h
  CL/F, Mean: 5.80 L/h
[4]; [8]
  AUC0-24, Geometric mean (CV): 632 (19) ng · h/mL
  AUC0-24, Mean (SD): 642 (121) ng · h/mL
[4]; healthy adults, 10 mg once daily, Day 1
  tmax, median (range): 3.00 (2.00-5.00) h
[4]; healthy adults, 20 mg once daily, Day 14
  tmax, median (range): 3.00 (2.00-8.00) h
[4]; healthy adults, 5, 10, or 20 mg once daily for 14 days
  Ctrough values: reached a plateau after Day 5
[4]; [9]
  effect of age and gender on accumulation: neither age nor gender affected accumulation
  time to steady state: ≤ 5 days
[5]; 26 weeks
  plasma and CSF biomarkers for GD-3: significant improvements
[5]; 52 weeks
  plasma and CSF biomarkers for GD-3: sustained significant improvements
[6]; 52 weeks, GD3, 15 mg/day oral + imiglucerase
  patients showing improvements in ataxia: 5 of 6
[6]; Week 52 (baseline 1), knee pain and toe injury at exam
  SARA stance score, Patient 4: 5
[6]; Week 52, GD3, 15 mg/day oral + imiglucerase
  patients exhibiting an improvement in ataxia, excluding Patient 5: 4 out of 5
[7]; between baseline and week 26
  VSEM measurements: stable
[7]; over the 26-week treatment period
  changes in HSEM: no clinically meaningful changes
